In data set [1] the test system is DAT. To be noted: cited from earlier work.
On the set-up of data set [2]: method as in ref [46] (a number printed in a supplementary file, which may have a reference list of its own: not looked up in the article's list). To be noted: ref [46]; cited from earlier work.
In data set [3] the test system is DAT. The arrangement: method as in ref [15] (a number printed in a supplementary file, which may have a reference list of its own: not looked up in the article's list). The settings on record: rat synaptosomes, without bupropion; ref [15]; read-out: EC50 of DAT-mediated amphetamine-induced DA release; cited from earlier work.
Data set [4] is described as follows: Chiral plasma pharmacokinetics of MDMA and its phase I and II metabolites after controlled MDMA administration. The data set is classed as in vivo, human. As to the method:
Blood plasma samples were analyzed non-stereoselectively as reported previously and reanalyzed for the present report using liquid chromatography-mass spectrometry/mass spectrometry after chiral derivatization with Marfey’s reagent as described previously. The method was fully validated, including selectivity, recovery, matrix effects, bias and imprecision, stability, and limit of quantification.

For data set [5] the following is noted: 125 mg single dose; ref [3, 61]; cited from earlier work.
The test system of the next data set is serotonin transporter. The settings on record: four weeks after MDMA 1.5-1.7 mg/kg, MDMA-naïve volunteers; ref [123, 124]; cited from earlier work.
Data set [6] in a line: Chiral plasma pharmacokinetics of bupropion and hydroxybupropion. To be noted: for half-life: both, human, plasma, oral; for effect of MDMA co-administration on plasma concentrations: bupropion+MDMA vs bupropion+placebo.
[7] abbreviates: bupropion vs placebo pretreatment.

Each structure is given as a SMILES string. Like-named read-outs stand apart in the source and are kept apart here.

For the compound `CC(NC(C)(C)C)C(=O)c1cccc(Cl)c1` (centres unmarked) [bupropion], the “DAT occupancy in the human striatum” value in the data set on DAT [1] (150 mg twice-daily, 3 h after last dose, 11C-βCIT-FE PET, ref [16]) is 26%. Further, in the data set with DAT [1] (2.5 h after single 150 mg, 11C-raclopride PET, ref [83]), the “striatal DAT occupancy” value is given as “no significant”. Moreover, in data set [2], the T1/2 is on record as 20 h.

As for `CC(N)Cc1ccccc1` (centres unmarked) [amphetamine], the EC50 in the data set on DAT [3] was […].

Regarding `CNC(C)Cc1ccc2c(c1)OCO2` (centres unmarked) [MDMA, 3,4-methylenedioxymethamphetamine], the “mean overall effect on R/S ratios” value in data set [4] (CYP2D6 inhibition by bupropion) was “less than 10%”. For the same compound, in data set [4] (setting [7]), the “change of R/S ratio for AUC24 after bupropion pretreatment” value is listed as -9% and the “change of R/S ratio for Cmax after bupropion pretreatment” value is recorded as -6%. In data set [5], the T1/2 is listed as 9.6 h and the Tmax is on record as 2.5 h. Moreover, the “change in serotonin transporter density” value in the data set with serotonin transporter was “No changes”.

As for `C[C@H](NC(C)(C)C)C(=O)c1cccc(Cl)c1` [S-bupropion, bupropion], the half-life in data set [6] (300 mg, t1/2 S/ S,S, bupropion+placebo (P), CYP2B6 genotype normal) was 438 min; in data set [6] (300 mg, t1/2 S/ S,S, bupropion+placebo (P), CYP2B6 genotype reduced) it was 468 min; in data set [6] (t1/2 S/ S,S, bupropion+MDMA (M), CYP2B6 genotype normal), 450 min; in data set [6] (t1/2 S/ S,S, bupropion+MDMA (M), CYP2B6 genotype reduced), 408 min. Besides, the “effect of MDMA co-administration on plasma concentrations” value in data set [6] is “did not significantly alter”.

Turning to `C[C@@H](NC(C)(C)C)C(=O)c1cccc(Cl)c1` [R-bupropion, bupropion], the half-life in data set [6] (300 mg, t1/2 R/ R,R, bupropion+placebo (P), CYP2B6 genotype normal) is 504 min; in data set [6] (300 mg, t1/2 R/ R,R, bupropion+placebo (P), CYP2B6 genotype reduced), 534 min; in data set [6] (t1/2 R/ R,R, bupropion+MDMA (M), CYP2B6 genotype normal), 510 min; in data set [6] (t1/2 R/ R,R, bupropion+MDMA (M), CYP2B6 genotype reduced), 450 min. Besides, the “effect of MDMA co-administration on plasma concentrations” value in data set [6] is “did not significantly alter”.

One may read the EC50 as the concentration at which the effect is half-maximal. A word on the Tmax: it is the time from dosing to the highest level. Broadly, the half-life is how long it takes for the measured level to halve.
